# Source: patent US20230027295A1, “FXIA INHIBITORS AND PREPARATION METHOD THEREFOR AND PHARMACEUTICAL USE THEREOF” (Shenzhen Salubris Pharmaceuticals Co., Ltd., priority 2019, published 2023)
# Assays:
# [1] = test system: human plasma; assay: Anticoagulant effect on human plasma in vitro (APTT determination); format: biochemical; conditions: for aPTT EC1.5×: concentration giving APTT of 1.5× blank control; for aPTT EC2×: concentration giving APTT of 2× blank control
# How it was run: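 Citrated (3.2%) human plasma, stored at −80 °C and thawed, mixed with compound in DMSO (2% v/v; DMSO-only blank) and incubated 10 min at 37 °C before APTT on a coagulation analyzer. EC1.5× and EC2× are concentrations giving APTT 1.5× and 2× the blank control, from curve fitting.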
# [2] = Caco-2 permeability; format: in vitro ADME; conditions: human; for efflux ratio at 2 h: Caco-2, Papp(B-A)/Papp(A-B); for Papp A→B at 2 h / Papp B→A at 2 h: Caco-2 monolayer, 2h incubation
# Experimental: Example 54: Investigation of the Caco-2 Data of the Compounds of the Present Invention
# Medium: DMEM (Corning), FBS (Corning), double antibody (Solarbio), 96-well HTS transwell plate (Corning), Caco-2 cells.
# Experimental method: Caco-2 cells were cultured on 96-well HTS transwell plate for 14-18 days, and the TEER value of each well was detected to ensure that the cells in each well formed a complete monolayer. Drug was added and it was incubated for 2h to detect the drug concentrations of A-B and B-A.
# Data processing: PappA-B and PappB-A values were calculated: Papp=(VA×[drug]acceptor)/(Area×Time×[drug]initial, donor); Efflux Ratio was calculated: Efflux Ratio=Papp(B-A)/Papp(A-B).
# [3] = target: T1, CYP2D6 (Homo sapiens, UniProt P10635); assay: CYP enzyme inhibition in liver microsomes: CYP2D6; format: in vitro ADME; conditions: 0.2 mg/mL liver microsomes
# T1 construct: Liver microsomes (150-donor, Corning, Cat. 452117; Lot; 38292), NADPH; tissue Corning 452117; host or cells: liver microsomes, 150-donor pool
# Experimental: Example 55: Investigation of CYP Enzyme Inhibition by the Compounds of the Present Invention Liver microsomes (150-donor, Corning, Cat. 452117; Lot. 38292), NADPH. A 0.2 mg/mL microsome system was prepared, each test substance and substrate were added, and the final concentration of the test substance was 50 μM. After pre-incubating for 8 min, 10 mM NADPH was added to start the reaction, and the final concentration of NADPH was 1 mM. After a period of incubation, an internal standard such as methanol was added to stop the reaction. The amount of substrate metabolites generated in each reaction well was detected. Data processing: Taking the metabolite generation in the blank well as 100%, the reduction of metabolite generation in each well of the test substance was calculated, and the inhibition rate was calculated.
# [4] = target: T2, Human Factor VIIa (Homo sapiens, UniProt P08709); assay: Selectivity to coagulation factors: hFVIIa (substrate S-2288); format: biochemical
# T2 construct: hFVIIa: Human Factor VIIa: hFVIIa 4591L; purchased hFVIIa 4591L
# T2 sequence (P08709 213-466 limits assumed): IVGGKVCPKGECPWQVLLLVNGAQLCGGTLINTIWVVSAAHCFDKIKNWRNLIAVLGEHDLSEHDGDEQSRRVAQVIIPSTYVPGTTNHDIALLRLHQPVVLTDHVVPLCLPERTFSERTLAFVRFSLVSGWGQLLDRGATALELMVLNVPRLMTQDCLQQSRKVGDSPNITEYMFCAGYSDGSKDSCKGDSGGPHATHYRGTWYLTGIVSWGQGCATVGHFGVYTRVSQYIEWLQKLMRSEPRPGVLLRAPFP
# T2 sequence (P08709 61-212 partner limits assumed): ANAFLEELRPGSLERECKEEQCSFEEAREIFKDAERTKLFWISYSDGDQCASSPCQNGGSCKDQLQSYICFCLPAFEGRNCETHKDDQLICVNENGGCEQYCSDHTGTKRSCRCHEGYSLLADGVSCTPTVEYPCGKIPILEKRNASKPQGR
# Experimental: Example 52: Investigation of the Selectivity of the Compounds of the Present Invention to Coagulation Factors
# Enzyme: hFXa: Human Factor Xa: 71nkat. hFIIa: HT5146L. hFVIIa: Human Factor VIIa: hFVIIa 4591L. kallikrein: LOT180223.
# 10 mM test compound dissolved in 100% DMSO was diluted with 100% DMSO to 1000, 200, 40, 8, 1.6 μM. 98 μL of enzyme solution was added to each well of a 96-well plate, while 98 μL of buffer was added to the blank wells. 2 μL of compounds of different concentrations were added, while the blank and control wells were added with DMSO instead. They were mixed with a shaker, and incubated at 37° C. for 20 min.
# The concentrations of hFXa and S-2222™ were FXa (1:28) and 800 μmol/L, respectively. The concentrations of hFIIa and S-2238™ were hFIIa (0.06 U/ml) and 500 μmol/L, respectively. The concentrations of hFVIIa and S-2288™ were hFVIIa (80 nM) and 1600 μmol/L, respectively. The concentrations of kallikrein and substrate were kallikrein (20 nM) and 1600 μmol/L, respectively.
# Finally, 100 μL substrate was added to each well, and its absorbance was measured at 405 nm.
# [5] = target: T3, hERG (Homo sapiens, UniProt Q12809); assay: hERG current in HEK293-hERG stably transfected cells; format: cell-based; conditions: human, HEK293 cells stably transfected with hERG; at 10 μM; read-out: hERG peak current inhibition
# T3 construct: host or cells: HEK293
# Experimental: (§1) Example 56: Investigation on hERG of the Compound of the Present Invention
# (§2) HEK293-hERG stably transfected cell line (invitrogen). DMEM medium (Gibco), HEPES (invitrogen), Blasticidin (invitrogen)
# (§3) HEK293-hERG stably transfected cells were used for experiments when they were cultured to a degree of polymerization of 40%-80%. First, a blank solvent was applied to the cells to establish a baseline. […] In the presence of test compounds, hERG currents were recorded for approximately 5 minutes to reach a steady state, and then 5 sweep frequencies were captured. To ensure good performance of cultured cells and manipulations, the same batch of cells was also tested using the positive control dofetilide.
# (§4) Peak current inhibition=(1−Peak tail current compound/Peak tail current vehicle)*100
# [6] = target: T4, hERG current (Homo sapiens, UniProt Q12809); assay: as above; format: cell-based; conditions: HEK293-hERG cells
# T4 construct: host or cells: HEK293
# Experimental: as §1, §2, §3, §4
# T3 sequence (Q12809 whole entry): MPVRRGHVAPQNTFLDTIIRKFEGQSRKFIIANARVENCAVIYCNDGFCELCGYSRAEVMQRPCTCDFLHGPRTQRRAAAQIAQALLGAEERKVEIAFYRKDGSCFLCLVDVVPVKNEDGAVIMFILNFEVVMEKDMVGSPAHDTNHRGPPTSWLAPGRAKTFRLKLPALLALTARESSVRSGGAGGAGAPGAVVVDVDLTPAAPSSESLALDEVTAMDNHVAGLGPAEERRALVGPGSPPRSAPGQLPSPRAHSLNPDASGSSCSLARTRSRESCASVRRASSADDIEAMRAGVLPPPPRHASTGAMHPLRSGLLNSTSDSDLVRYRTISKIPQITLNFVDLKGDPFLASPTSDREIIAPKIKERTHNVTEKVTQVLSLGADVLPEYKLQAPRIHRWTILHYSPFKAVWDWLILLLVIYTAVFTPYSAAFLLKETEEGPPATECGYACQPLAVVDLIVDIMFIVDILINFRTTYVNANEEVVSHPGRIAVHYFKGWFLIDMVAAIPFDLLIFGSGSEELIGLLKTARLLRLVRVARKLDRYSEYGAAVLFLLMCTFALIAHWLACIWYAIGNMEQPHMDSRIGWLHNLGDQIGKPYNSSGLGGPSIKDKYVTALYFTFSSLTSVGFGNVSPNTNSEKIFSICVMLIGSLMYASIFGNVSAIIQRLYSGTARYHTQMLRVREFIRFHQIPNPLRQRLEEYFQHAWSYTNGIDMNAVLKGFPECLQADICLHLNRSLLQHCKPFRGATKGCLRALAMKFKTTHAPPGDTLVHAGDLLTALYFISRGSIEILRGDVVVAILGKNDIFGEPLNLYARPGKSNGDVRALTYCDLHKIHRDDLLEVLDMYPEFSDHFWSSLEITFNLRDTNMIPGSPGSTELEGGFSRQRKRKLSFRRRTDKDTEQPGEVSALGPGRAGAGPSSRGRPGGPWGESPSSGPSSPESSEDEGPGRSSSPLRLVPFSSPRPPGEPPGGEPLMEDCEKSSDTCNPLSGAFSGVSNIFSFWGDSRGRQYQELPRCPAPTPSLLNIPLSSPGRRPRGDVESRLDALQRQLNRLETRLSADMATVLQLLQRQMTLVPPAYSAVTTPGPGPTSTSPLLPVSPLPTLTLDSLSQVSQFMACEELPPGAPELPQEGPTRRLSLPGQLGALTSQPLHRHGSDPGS
# T4 sequence (Q12809 whole entry): as above
# T1 sequence (P10635 whole entry): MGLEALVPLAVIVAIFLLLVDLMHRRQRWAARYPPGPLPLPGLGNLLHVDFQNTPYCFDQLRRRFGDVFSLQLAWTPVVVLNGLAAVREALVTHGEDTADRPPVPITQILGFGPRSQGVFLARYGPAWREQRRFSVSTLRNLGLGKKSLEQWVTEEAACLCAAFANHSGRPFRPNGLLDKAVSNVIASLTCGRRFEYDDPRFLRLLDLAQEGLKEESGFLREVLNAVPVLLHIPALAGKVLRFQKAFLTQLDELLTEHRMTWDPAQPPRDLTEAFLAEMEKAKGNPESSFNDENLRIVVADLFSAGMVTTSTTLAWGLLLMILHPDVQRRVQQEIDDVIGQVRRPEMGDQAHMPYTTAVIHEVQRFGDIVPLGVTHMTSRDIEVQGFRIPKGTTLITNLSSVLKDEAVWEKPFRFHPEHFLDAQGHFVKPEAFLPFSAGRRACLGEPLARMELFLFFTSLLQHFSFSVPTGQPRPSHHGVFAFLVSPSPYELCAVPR
efflux ratio at 2 h [2],Papp A→B at 2 h [2],Papp B→A at 2 h [2],IC50 [3],IC50 [4],SMILES,aPTT EC1.5× [1],aPTT EC2× [1],"inhibition at 5 min, 10 µM [5]",IC50 [6]
18.3,1.2 ×10⁻⁶ cm/s,21.9 ×10⁻⁶ cm/s,> 50 µM,> 100 µM,CCC(=O)c1ccc(Cl)cc1-c1cc(=O)n([C@@H](Cc2ccccc2)C(=O)Nc2ccc(C(=O)O)cc2)nc1OC [Example 32],0.483 µM,1.319 µM,2.8%,> 10 µM
16.3,1.54 ×10⁻⁶ cm/s,25.1 ×10⁻⁶ cm/s,> 50 µM,> 100 µM,"COc1nn([C@@H](Cc2ccccc2)C(=O)Nc2ccc(C(=O)O)cc2)c(=O)cc1-c1cc(Cl)ccc1C(C)=O [Example 19, (S)-4-(2-(4-(2-acetyl-5-chlorophenyl)-3-methoxy-6-oxopyridazin-1(6H)-yl)-3-phenylpropanamido)benzoic acid]",0.641 µM,2.817 µM,1.17%,> 10 µM
